From US9308176B2, “Less abusable pharmaceutical preparations” (Supernus Pharmaceuticals, Inc, priority 2004, dated 2016)

Assay: aqueous solubility at different pH
From the text: Moreover, alkaline agents, such as sodium bicarbonate, calcium carbonate, meglumine, and calcium phosphate, can be used to convert salt forms of amine drugs to free base. Generally, free bases have much lower solubility than their salts.

## COc1ccc2c3c1O[C@H]1C(=O)CC[C@@]4(O)[C@@H](C2)N(C)CC[C@]314.Cl [oxycodone hydrochloride]
pH 1.5, simulated gastric fluid
  solubility: 182 mg/mL
pH 7.4, aqueous buffer
  solubility: 6.1 mg/mL
